Square brackets hold non-standard residues; d marks the D form.
Tested on: growth hormone release
Assay: suppression of growth hormone release in arginine stimulated rats (plasma GH by radioimmunoassay)
Type: in vivo
Conditions: Nembutal-anaesthetised albino male rats, blood 15 min after peptide
Description: The potent inhibition of growth hormone secretion was established for the compounds of this invention by subjecting the representative product of Example 5 to the following standard procedure involving suppression of growth hormone release in arginine stimulated rats:
Albino male rats are administered Nembutal intraperitoneally at a dose of 50 milligrams per kilogram. Fifteen minutes later a subcutaneous injection of the product of Example 5 is administered. Ten minutes later 0.5 milliliters of arginine (300 milligrams per milliliter, pH 7.2) is injected into the heart. Five minutes after receipt of the arginine the rats are decapitated and blood is collected into Trasylol-EDTA. An appropriate aliquot is assayed for growth hormone (GH) by radioimmuno-assay. The results of the test procedure were compared with those obtained in the same manner with Compound 8 of Table 2 disclosed by Veber et al., loc. cit., as follows: […]

## cyclo(PF[dW]KTF) [Compound 8]
Dose of peptide 0.1 μg/kg subcutaneous
  Plasma GH Levels: 278 ± 89 ng/mL
Dose of peptide 1.0 μg/kg subcutaneous
  Plasma GH Levels: 169 ± 19 ng/mL
Dose of peptide 10.0 μg/kg subcutaneous
  Plasma GH Levels: 126 ± 6 ng/mL

Reference: patent US4492651A, “Cyclic hexapeptides” (American Home Products Corporation, priority 1983, dated 1985)
